Each structure is given as a SMILES string.

Assay type in all cases: physicochemical
The nature of series [1]: Ionization constant, pKa of the compound.
Series [2] is described as follows: Distribution coefficient, logD of the compound in water/PBS buffer at pH 7.4 at 25 degC after 20 mins by shake flask method.
Series [3] is described as follows: Ionization constant, pKa of the compound in buffer at pH 1 to 13 by uV spectrophotometry.
Series [4] can be described thus: Partition coefficient, logP of the compound in water/PBS buffer at pH 7.4 at 25 degC after 20 mins by shake flask method.
Series [5] in a line: Partition coefficient, logP of the compound in water/PBS buffer at 25 degC by OECD guidelines based method. The conditions noted are these: octanol/water.

`CN1CC[C@H](c2c(O)cc(O)c3c(=O)cc(-c4ccccc4Cl)oc23)[C@H](O)C1` [ALVOCIDIB]: the pKa in series [1] worked out at 5.68; in series [3] it was 5.56. Further, the logD at 20 min came to 1.24 in series [2] and 0.21 in series [4]. Besides, the log partition coefficient (logP) in series [5] was 1.01.

The values above are taken from ChEMBL document CHEMBL3826966, “A chromatography-free isolation of rohitukine from leaves of Dysoxylum binectariferum: Evaluation for in vitro cytotoxicity, Cdk inhibition and physicochemical properties” (Bioorg Med Chem Lett, 2016).
